Test results reported in patent US20130071931A1, “PROCESS FOR HEPATIC DIFFERENTIATION FROM INDUCED HEPATIC STEM CELLS, AND INDUCED HEPATIC PROGENITOR CELLS DIFFERENTIATED THEREBY” (NATIONAL CANCER CENTER, priority 2011, published 2013).
Structures can show the parent of a compound that is named as a salt.

How the values were obtained:
[1] = system: human induced hepatic stem cells NGC1-1; test: Quantitative RT-PCR, differentiation with TGF-β signaling inhibitors (Example 11); assay type: cell-based; conditions: cell samples Nos. 1141-1145: 0.5 μM inhibitor in ReproStem + 10 ng/mL aFGF, no feeder cells, Matrigel, 7 days after seeding; No. 1133 taken as 1
Description: The resultant cell samples are respectively referred to as “Nos. 1141-1145”. No. 1140 was cultured in the absence of any inhibitor. Nos. 1141-1145 were cultured in the presence of the following inhibitors, respectively. No. 1141: […] Cat. No. 2939) No. 1142: […] MERCK Calbiochem; Cat. […] MERCK Calbiochem; Cat. […] Cayman; Cat. No. 13031) No. 1145: […] Cayman; Cat. No. 13341). […] Seven days after the seeding, the cells were lysed in 1 mL/well of a QIAzol reagent to prepare the total RNA from the cell lysate using the miRNeasy Mini Kit (Qiagen). The total RNA was subjected to quantitative RT-PCR using the iScript Advanced cDNA synthesis kit, the SsoAdvanced SYBR Green Supremix ([…]), and the CFX96 Real-Time System C1000 Thermal Cycler, all manufactured by Bio-Rad.

[2] = system: human induced hepatic stem cells AFB1-1; test: Quantitative RT-PCR, differentiation with TGF-β signaling inhibitors (Example 12); assay type: cell-based; conditions: cell samples Nos. 1545-1549: 0.5 μM inhibitor in ReproStem (bFGF-free), no feeder cells, Matrigel, 13 days after seeding; for KRT7 expression ratio: No. 1543 taken as 1; for GAPDH expression Ct value: housekeeping gene
Description: The resultant cell samples are respectively referred to as “Nos. 1545-1549”. No. 1544 was cultured in the absence of any inhibitor. Nos. 1545-1549 were cultured in the presence of the following inhibitors, respectively.
Thirteen days after the seeding, the cells were lysed in 1 mL/well of a QIAzol reagent to prepare the total RNA from the cell lysate using the miRNeasy Mini Kit (Qiagen). The total RNA was subjected to quantitative RT-PCR using the iScript Advanced cDNA synthesis kit, the SsoAdvanced SYBR Green Supremix ([…]), and the CFX96 Real-Time System C1000 Thermal Cycler, all manufactured by Bio-Rad. The quantified genes were ALB, AAT, TTR, AFP, cytokeratin 7 (KRT7), cytokeratin 19 (KRT19), and DLK1 (Delta-like 1 homolog).

[3] = system: human induced hepatic stem cells AFB1-1; test: Quantitative RT-PCR of marker genes, hepatic differentiation on Matrigel (Examples 2-4); assay type: cell-based; conditions: cell sample No. 391: aFGF 10 ng/mL/ReproStem (bFGF-free), no feeder cells, 13 days, No. 377 taken as 1
[4] = system: human induced hepatic stem cells AFB1-1; test: AFP in culture supernatant, hepatic differentiation on Matrigel (Examples 2-4); conditions: cell sample No. 391: aFGF 10 ng/mL/ReproStem (bFGF-free), no feeder cells, 13 days after seeding

Molecule | AAT expression ratio [1] | AFP expression ratio [1] | ALB expression ratio [1] | TTR expression ratio [1] | AAT expression Ct value [2] | AFP expression Ct value [2] | ALB expression Ct value [2] | DLK1 expression Ct value [2] | KRT7 expression Ct value [2] | KRT19 expression Ct value [2] | TTR expression Ct value [2] | KRT7 expression ratio [2] | GAPDH expression Ct value [2] | further results
c1ccc(-c2n[nH]cc2-c2ccnc3ccccc23)nc1 [LY-364947, 4-[3-(2-pyridinyl)-1H-pyrazol-4-yl]-quinoline] | 14.36 | 369.23 | 114.78 | 482.45 | – | – | – | – | – | – | – | – | – | –
NC(=O)c1ccc(-c2nc(-c3ccc4c(c3)OCO4)c(-c3ccccn3)[nH]2)cc1 [SB431542, 4-[4-(1,3-benzodioxol-5-yl)-5-pyridin-2-yl-1H-imidazol-2-yl]benzamide] | 12.15 | 394.40 | 94.46 | 614.17 | – | – | – | – | – | – | – | – | – | –
Cc1cccc(-c2[nH]c(C(C)(C)C)nc2-c2ccc3c(c2)OCO3)n1.Cl [SB-505124, 2-(5-benzo[1,3]dioxol-5-yl-2-tert-butyl-3H-imidazol-4-yl)-6-methylpyridine hydrochloride hydrate] | – | – | – | – | 23.56 | 18.61 | 23.2 | 18.77 | 19.8 | 20.33 | 17.24 | 2768 | 13.25 | –
Cc1cccc(-c2n[nH]cc2-c2ccc3ncccc3n2)n1 [compound 616451, 3-(pyridin-2-yl)-4-(4-quinonyl)-1H-pyrazole] | 13.45 | 747.65 | 163.71 | 966.14 | – | – | – | – | – | – | – | – | – | –
Cc1cccc(-c2n[nH]cc2-c2ccc3ncccc3n2)n1 [compound 616452, 2-(3-(6-methylpyridin-2-yl)-1H-pyrazol-4-yl)-1,5-naphthyridine] | 22.18 | 720.03 | 296.67 | 1,262.14 | – | – | – | – | – | – | – | – | – | –
Cc1cccc(-c2nc(C(C)(C)C)[nH]c2-c2ccc3c(c2)OCO3)n1 [compound 616453, HCl] | – | – | – | – | 24.09 | 20.24 | 25.55 | 18.74 | 19.45 | 20.29 | 18.13 | 4761 | 13.76 | –
Fc1ccc(Cl)cc1-c1nc(Nc2ccncc2)c2nccnc2n1 [compound 616456] | – | – | – | – | 23.54 | 17.48 | 21.35 | 19.1 | 20.05 | 20.45 | 17.4 | 3186 | 13.72 | –
Cc1cccc(-c2[nH]c(C(C)(C)C)nc2-c2ccc3nccnc3c2)n1 [compound 616459, 6-(2-tert-butyl-5-(6-methyl-pyridin-2-yl)-1H-imidazol-4-yl)-quinoxaline] | – | – | – | – | 23.54 | 19.25 | 24.67 | 18.66 | 19.89 | 20.36 | 17.24 | 4905 | 14.24 | –
aFGF: aFGF, 10 ng/mL supplement of bFGF-free ReproStem medium (cell sample No. 391) | – | – | – | – | – | – | – | – | – | – | – | – | – | AAT expression level [3]: 220; AFP expression level [3]: 3,420; ALB expression level [3]: 3,172; DLK1 expression level [3]: 786; TTR expression level [3]: 3,910; α-fetoprotein (AFP) in culture supernatant [4]: 3,300 ng/mL
